Assay results taken from PubChem BioAssay AID1996.
Values after ≈ are worked out from the molar mass of the structure shown.

Details: buffer; pH 7.4; 200.0 µM

Structure (SMILES)	solubility kinetic
Cc1ccc(-n2c(O)c(C=NCc3ccco3)c(=O)[nH]c2=S)cc1C	11.1 µg/mL (≈ 31.2 µM)
CCOc1ccc(NC(=S)NCc2nc3ccccc3[nH]2)cc1	46.6 µg/mL (≈ 143 µM)
Cn1c(C(=O)N2CCN(c3ccccn3)CC2)cc2ccccc21	43.8 µg/mL (≈ 137 µM)
CCOC(=O)c1sc(SC)nc1N	22.2 µg/mL (≈ 102 µM)
O=C(Nc1ccc(CN2CCS(=O)(=O)CC2)cc1)c1ccc(Cl)cc1	4.6 µg/mL (≈ 12.1 µM)
Cc1ccc2c(c1)[nH]c1c(=O)n(Cc3ccco3)cnc12	0.5 µg/mL (≈ 1.79 µM)
CC(C)c1ccc(NC(=O)COC(=O)[C@@H]2CCCN2C(=O)c2cccs2)cc1	13.3 µg/mL (≈ 33.2 µM)
O=C(O)CC1c2ccccc2CCN1S(=O)(=O)c1ccccc1 (stereo unspecified)	> 49.7 µg/mL
Fc1ccc(NC(=S)Nc2cccc3ccccc23)cc1	16.7 µg/mL (≈ 56.3 µM)
Cc1ccc(CN2CC(C(=O)Nc3ncccc3C)CC2=O)cc1 (stereo unspecified)	> 48.5 µg/mL
COc1ccc(C(=O)c2sc(Nc3ccccc3)nc2N)cc1	2.2 µg/mL (≈ 6.76 µM)
O=C(Nc1ccc(Cl)cn1)c1cccc2ccccc12	1.3 µg/mL (≈ 4.6 µM)
CC(NC(=O)COc1ccccc1Cl)c1ccccc1 (stereo unspecified)	> 43.5 µg/mL
CCC1(C)CC(C(N)=S)CCO1 (stereo unspecified)	17.1 µg/mL (≈ 91.3 µM)
CC1CCCC(NC(=O)CSc2cccc[n+]2[O-])C1C (stereo unspecified)	> 44.2 µg/mL
CCn1c(=O)c(C(=O)Nc2ccc(C)cc2)c(O)c2ccccc21	< 0.3 µg/mL
O=C(CN1C(=O)NC2(CCOc3ccccc32)C1=O)NCCc1ccccc1 (stereo unspecified)	> 56.9 µg/mL
Cc1ccc(CN2C(=O)CSC2c2ccccc2F)cc1 (stereo unspecified)	14 µg/mL (≈ 46.5 µM)
CCOC(=O)c1c(C)n(CC)c2c1cc(O)c1ccccc12	< 0.6 µg/mL
Cc1cc(N2CCN(C)CC2)nc2ccccc12	32.9 µg/mL (≈ 136 µM)
C/C(=C\c1ccc(Br)cc1)C(=O)c1c(C)cc(C)[nH]c1=O	> 51.9 µg/mL

Structure (SMILES)	solubility kinetic
Cc1cc(C)c(C)c(S(=O)(=O)NC(C)C(=O)O)c1C (stereo unspecified)	> 42.8 µg/mL
O=C(NCc1ccccn1)Nc1ccccc1	> 34.1 µg/mL
Cc1ccc(S(=O)(=O)NCCNc2ccccc2[N+](=O)[O-])cc1	1.1 µg/mL (≈ 3.28 µM)
CC1=CSC2=NS(=O)(=O)CCN12	> 30.6 µg/mL
O=C(Nc1ccncc1)Nc1cccc(C(F)(F)F)c1	5.4 µg/mL (≈ 19.2 µM)
COc1ccc(-n2c(C)c(C)c3c(NCCCO)ncnc32)cc1	> 49 µg/mL
COc1ccc(-c2csc(Nc3ccc(C)cn3)n2)cc1OC	1.3 µg/mL (≈ 3.97 µM)
CN1C=CC=C/C1=C1/N=C(c2ccccc2)OC1=O	> 37.8 µg/mL
Cc1cccc2c(C(=O)O)c3cccc(C)c3nc12	34 µg/mL (≈ 135 µM)
Cc1cc(C)c2c(CC(=O)NN(C)C)coc2c1	> 36.9 µg/mL
O=C(CN1CCN(c2ccccc2)CC1)N1CCc2ccccc21	7 µg/mL (≈ 21.8 µM)
CN(C)CC/C=C1\c2cc(Cl)ccc2Sc2cc(F)c(F)cc21.Cl	21.8 µg/mL
Cn1c(SCC(=O)Nc2cccnc2Cl)nc2ccccc21	37.9 µg/mL (≈ 114 µM)
Cc1cccc(CC(=O)N2CCCC2)c1	28.7 µg/mL (≈ 141 µM)
O=c1c2ccccc2[nH]c(=S)n1Cc1ccc2c(c1)OCO2	< 0.3 µg/mL
Cc1cc(C)n2nc(C(=O)OCC(=O)Nc3ccc(C)c(S(=O)(=O)N4CCOCC4)c3)nc2n1	> 73.3 µg/mL
O=C(NCCc1ccc(Cl)cc1)C1(c2ccccc2)CC1	35.4 µg/mL (≈ 118 µM)
Cc1ccc(C)c(-c2cc(C(=O)NC3CC3)c3ccccc3n2)c1	39.6 µg/mL (≈ 125 µM)
Cc1ccc(C)c(S(=O)(=O)/N=C(/Nc2ccccc2)c2ccccc2)c1	17.2 µg/mL (≈ 47.2 µM)
Cc1ccc(C2CC(=O)C=C(NCc3ccccc3)C2)cc1 (stereo unspecified)	12.7 µg/mL (≈ 43.6 µM)
CN(C)CCSc1nc2cc(S(=O)(=O)N3CCCCC3)ccc2o1	41.7 µg/mL (≈ 113 µM)

Structure (SMILES)	solubility kinetic
Cc1ccc(S(=O)(=O)N2CCC(C(=O)NCC3CCCCC3)CC2)cc1	1.6 µg/mL (≈ 4.23 µM)
O=C1CC(c2ccccc2)CN1C(=O)c1cccnc1 (stereo unspecified)	34.8 µg/mL (≈ 131 µM)
CC1=C(C(N)=O)C(c2cccs2)NC(=O)N1 (stereo unspecified)	> 35.6 µg/mL
CCOC(=O)c1ccc(NC(=O)NCc2cccnc2)cc1	> 44.9 µg/mL
CCCCCCCCNC(CO)(CO)CO	29.5 µg/mL (≈ 126 µM)
Cl.Oc1ccccc1CNCC12CC3CC(CC(C3)C1)C2	> 46.2 µg/mL
COc1ccc(-n2c(SCC(=O)N(C)C3CCS(=O)(=O)C3)nc3ccc(O)cc3c2=O)cc1OC (stereo unspecified)	35.3 µg/mL (≈ 67.9 µM)
CN1C(=O)CN=C(c2ccc(Cl)cc2)c2cc(Cl)ccc21	> 47.9 µg/mL
CCOc1cc(S(=O)(=O)Nc2ccncc2)ccc1F	> 44.4 µg/mL
CC1CCC(C(C)C)C(=O)/C1=C/c1ccc(N)cc1 (stereo unspecified)	3.3 µg/mL (≈ 12.8 µM)
Cn1nc(-c2ccc(Cl)cc2)cc1NC(=O)CCCC(=O)O	> 48.3 µg/mL
Cc1ccccc1NS(=O)(=O)c1csc(C(N)=O)c1	> 44.5 µg/mL
O=C(O)c1ccccc1NS(=O)(=O)c1cccc(NS(=O)(=O)c2cc(Br)ccc2Br)c1	> 88.5 µg/mL
O=C(COC(=O)c1cc(=O)[nH]c2ccccc12)NCc1ccccc1Cl	4.1 µg/mL (≈ 11.1 µM)
CC1(C)C(C#N)=C(N)Oc2c1c(=O)oc1ccccc21	1.1 µg/mL (≈ 4.1 µM)
COc1ccccc1NC(=O)NC1(C)CCS(=O)(=O)C1 (stereo unspecified)	> 44.8 µg/mL
Cc1cccc2c(SCC(N)=O)nc(-c3ccccc3)nc12	< 0.2 µg/mL
O=C(Nc1cccc([N+](=O)[O-])c1)c1ccc2nsnc2c1	1.9 µg/mL (≈ 6.33 µM)
O=C(COC(=O)c1ccccc1F)NC1CCCC1	> 39.8 µg/mL
